Values quoted from earlier work in patent publication CN103893129A, “帕潘立酮缓释微球及其注射剂和该缓释微球的制备方法” (CHONGQING DAXIN PHARMACEUTICALS Co Ltd OF PKU INTERNATIONAL …, priority 2012, dated 2014).

System: schizophrenia (精神分裂症)

Cc1nc2n(c(=O)c1CCN1CCC(c3noc4cc(F)ccc34)CC1)CCCC2O (centres unmarked) [帕潘立酮, 6,7,8,9-四氢-3-(2-(4-(6-氟-1,2-苯并异唑-3-基)-1-哌啶基)乙基)-9-羟基-2-甲基-4H-吡啶并[2,1-a]嘧啶-4-酮]
efficacy on positive and negative symptoms of schizophrenia (clinical): 对精神分裂症阳性症状和阴性症状均有疗效
relapse rate of schizophrenia (patients): 可有效延迟精神分裂症的复发率
